Patent US11129820B2, “Ferroportin-inhibitor salts” (Vifor (International) AG, priority 2017, dated 2021)
Where “and” joins values, the source holds several entries; their conditions need not be identical. Equal entries are not always repeated. Marks after values point to notes of the source that are not given here.

Experiments:
naïve WT C57BL/6 mice = test: Hypoferremia in naïve mice; format: in vivo, mouse; settings: Mus musculus, po, 3 h, relative to vehicle, read-out: Serum Iron Reduction at 3 h (%); for inhibition in vivo at 10 mg/kg: Dose 10 mg/kg p.o.; for inhibition in vivo at 30 mg/kg: Dose 30 mg/kg p.o.; for inhibition in vivo at 100 mg/kg: Dose 100 mg/kg p.o.
Description: Injection of synthetic hepcidin in wild-type (WT) naïve mice results in a reduction of serum iron levels (40-50% from the vehicle control) with a maximal effect at 3-4 hours post treatment (Rivera, 2005; FIG. 12A).
Female C57BL/6 mice (Janvier, France) at age of 9 weeks are fed a standard diet (Harlan Provimi Kliba 3436) and treated per os (p.o.) with compounds or the corresponding amount of vehicle at a volume of 10 ml/kg body weight. Fpn inhibitors are formulated in 0.5% methylcellulose/water or 20% cremophor EL/water and dosed p.o. in mice at 10, 30 or 100 mg/kg body weight. Three hours later, mice are pre-terminally anesthetized in isoflurane chambers and blood is collected by retro-orbital bleeding. Mice are sacrificed by cervical dislocation and spleens, livers and duodena were harvested and used for biomarker analysis. All experiments are conducted in compliance with the license approved by the responsible veterinarian authorities. Serum is isolated by centrifugation of blood into gel-containing microtainers and serum iron is determined by the MULTIGENT Iron assay (Abbott Diagnostics, 6K95). Eight mice per group are used and one-way ANOVA with Bonferroni's multiple comparison test is performed to analyze the statistical differences between the experimental groups.
Table 6 Efficacy of Fpn inhibitors tested in the naïve mouse hypoferremia model. Serum iron reduction induced by selected ferroportin inhibitors dosed p.o. in naïve WT C57BL/6 mice at 10, 30 and 100 mg/kg. Relative serum iron reduction at 3 h after dosing was calculated by subtracting the average of serum iron values of animals dosed with the Fpn inhibitor from that of vehicle-treated animals. The difference in average serum iron values between vehicle and compound treated groups was then divided by the average of serum iron of the vehicle control group and listed as percentage.

[1] = system: beta2-microglobulin deficient (b2m−/−) mice; test: Correction of hyperferremia in beta2-microglobulin deficient mice; format: in vivo, mouse
Description: Female and male homozygous b2m−/− mice are supplied from Jackson Laboratories (B6.129P2-B2mtm1Unc/J, Stock Number: 002087) at age of 6 to 7 weeks and fed standard diet (Harlan Provimi Kliba 3436) ad libitum. Age and gender matched WT C57BL/6 mice are supplied by Charles River. To study the acute effects of ferroportin (Fpn) inhibitors in iron overload b2m−/− mice are treated with compounds or the corresponding amount of vehicle at a volume of 10 ml/kg body weight. Fpn inhibitor compounds are formulated in 0.5% methylcellulose/water or 20% cremophor EL/water and dosed p.o. in mice at 50 mg/kg body weight. WT controls received only vehicle. Three hours later, mice are pre-terminally anesthetized in isoflurane chambers and blood is collected by retro-orbital bleeding. Mice are sacrificed by cervical dislocation and spleens, livers and duodena are harvested and used for biomarker analysis. All experiments are performed in compliance with license approved by the responsible veterinarian authorities. Serum is isolated by centrifugation of blood into gel-containing microtainers (BD Biosciences) and serum iron is determined by the MULTIGENT Iron assay (Abbott Diagnostics, Cat. 6K95). Four to nine mice per group are used and one-way ANOVA with Bonferroni's multiple comparison test is applied to analyze the statistical differences between the experimental groups.
Blood is collected 1 (#) or 3 (##) hours after oral administration of the indicated doses of Fpn inhibitors to beta2-microglobulin deficient mice and serum iron concentrations are measured. Relative reduction (%) of serum iron levels are shown, which were calculated by subtracting the average of serum iron values of animals dosed with the Fpn inhibitor from that of vehicle-treated animals. The difference in average serum iron values between vehicle and compound treated groups was then divided by the average of serum iron of the vehicle control group and listed as percentage. Values are listed separately for female (♀) and male (♂) animals, because a marked sex-dependent difference in efficacy was noted. Statistically significant (2-way ANOVA with Bonferroni post test) differences observed between compound-treated and vehicle-treated groups are indicated (*** p<0.001; ** p<0.01, p<0.05).

[2] = female ♀, 20 mg/kg oral, blood collection time not marked
[3] = female ♀, 60 mg/kg oral, blood collection time not marked
[4] = male ♂, 20 mg/kg oral, blood collection time not marked
[5] = male ♂, 60 mg/kg oral, blood collection time not marked

O=C(NCc1ncccc1F)c1cnc(CCNCCc2nc3ccccc3[nH]2)o1 [Example Compound No. 1]
inhibition in vivo at 10 mg/kg (naïve WT C57BL/6 mice): 0% | inhibition in vivo at 30 mg/kg (naïve WT C57BL/6 mice): 28% | inhibition in vivo at 100 mg/kg (naïve WT C57BL/6 mice): 51% | Serum Iron Reduction (%) [1, 2]: 31** % | Serum Iron Reduction (%) [1, 3]: 52** % | Serum Iron Reduction (%) [1, 4]: 31** % | Serum Iron Reduction (%) [1, 5]: 59** %

O=C(NCc1ncccc1F)c1cnc(C2CN(CCc3nc4ccccc4[nH]3)C2)o1 [Example Compound No. 2]
inhibition in vivo at 10 mg/kg (naïve WT C57BL/6 mice): 9% | inhibition in vivo at 30 mg/kg (naïve WT C57BL/6 mice): 26% | inhibition in vivo at 100 mg/kg (naïve WT C57BL/6 mice): 50% | Serum Iron Reduction (%) [1, 2]: 27% | Serum Iron Reduction (%) [1, 3]: 57** % | Serum Iron Reduction (%) [1, 4]: 29% | Serum Iron Reduction (%) [1, 5]: 66** %

O=C(NCc1ncccc1F)c1csc(CCNCc2nc3ccccc3[nH]2)n1 [Example Compound No. 40]
inhibition in vivo at 10 mg/kg (naïve WT C57BL/6 mice): 10% | inhibition in vivo at 30 mg/kg (naïve WT C57BL/6 mice): 30% | inhibition in vivo at 100 mg/kg (naïve WT C57BL/6 mice): 50% | Correction of elevated serum iron, in words ([1]; b2m−/− mice, 50 mg/kg p.o., 3 h): corrected the elevated serum iron to the levels observed in WT controls | Serum Iron Reduction (%) ([1]; female ♀, 20 mg/kg oral, 1 hour (#)): 0% | Serum Iron Reduction (%) ([1]; female ♀, 60 mg/kg oral, 1 hour (#), 60 mg/kg): 13% and 10% | Serum Iron Reduction (%) ([1]; male ♂, 20 mg/kg oral, 1 hour (#)): 35** % | Serum Iron Reduction (%) ([1]; male ♂, 60 mg/kg oral, 1 hour (#), 60 mg/kg): 32** % and 58** %
